In ChEMBL document CHEMBL3885881, “DrugMatrix”:

Organism: Rattus norvegicus
Assay: DrugMatrix - Regimen: Daily Repeat
Type: toxicity, organism-based, Sprague-Dawley
Design: regimen Daily Repeat, gender Male, age 6-8 weeks
Conditions: in vivo, po, route oral GAVAGE, vehicle 100 % WATER
[1] = 9 mg/kg, 72 h, tissue Blood, dose level Low, time 3 day
[2] = 9 mg/kg, 72 h, tissue Plasma, dose level Low, time 3 day
[3] = 9 mg/kg, 120 h, tissue Blood, dose level Low, time 5 day
[4] = 9 mg/kg, 120 h, tissue Plasma, dose level Low, time 5 day
[5] = 90 mg/kg, 72 h, tissue Blood, dose level High, time 3 day
[6] = 90 mg/kg, 72 h, tissue Plasma, dose level High, time 3 day
[7] = 90 mg/kg, 120 h, tissue Blood, dose level High, time 5 day
[8] = 90 mg/kg, 120 h, tissue Plasma, dose level High, time 5 day

STANNOUS FLUORIDE
ABSOLUTE BASOPHIL [1]: 0 CELLS/uL
ABSOLUTE EOSINOPHIL [1]: 0 CELLS/uL
ABSOLUTE LYMPHOCYTE [1]: 13273.33 CELLS/uL
ABSOLUTE MONOCYTE [1]: 348.33 CELLS/uL
ABSOLUTE SEGMENTED NEUTROPHIL [1]: 1378.33 CELLS/uL
BASOPHIL [1]: 0%
EOSINOPHIL [1]: 0%
ERYTHROCYTE COUNT [1]: 5.48 x10E6/uL
HEMATOCRIT [1]: 34.9%
HEMOGLOBIN [1]: 13.5 G/DL
LEUKOCYTE COUNT [1]: 15 x10E3/uL
MEAN CORPUSCULAR HEMOGLOBIN [1]: 24.67 pg
MEAN CORPUSCULAR HEMOGLOBIN CONCENTRATION [1]: 38.7 G/DL
NUCLEATED RED BLOOD CELLS [1]: 0 /100WBC
PLATELET COUNT [1]: 1118.33 x10E3/uL
ALANINE AMINOTRANSFERASE [2]: 80.67 u/L
ALKALINE PHOSPHATASE [2]: 343 u/L
ASPARTATE AMINOTRANSFERASE [2]: 104.33 u/L
BLOOD UREA NITROGEN [2]: 17 mg/dL
CARBON DIOXIDE [2]: 21.33 mmol/L
CHOLESTEROL [2]: 77 mg/dL
CREATINE PHOSPHOKINASE [2]: 322.33 u/L
CREATININE [2]: 0.21 mg/dL
GLUCOSE [2]: 188 mg/dL
LACTATE DEHYDROGENASE [2]: 156 u/L
LIPASE [2]: 9.5 u/L
PHOSPHORUS [2]: 11.3 mg/dL
POTASSIUM [2]: 6.63 MEQ/L
SODIUM [2]: 146.2 MEQ/L
TOTAL BILIRUBIN [2]: 0.37 mg/dL
TOTAL PROTEIN [2]: 5.07 G/DL
URIC ACID [2]: 1.73 mg/dL
ABSOLUTE BASOPHIL [3]: 0 CELLS/uL
ABSOLUTE EOSINOPHIL [3]: 174 CELLS/uL
ABSOLUTE LYMPHOCYTE [3]: 11650 CELLS/uL
ABSOLUTE MONOCYTE [3]: 421.33 CELLS/uL
ABSOLUTE SEGMENTED NEUTROPHIL [3]: 1221.33 CELLS/uL
BASOPHIL [3]: 0%
EOSINOPHIL [3]: 1%
ERYTHROCYTE COUNT [3]: 5.66 x10E6/uL
HEMATOCRIT [3]: 35.6%
HEMOGLOBIN [3]: 13.1 G/DL
LEUKOCYTE COUNT [3]: 13.47 x10E3/uL
LYMPHOCYTE [3]: 86.67%
MEAN CORPUSCULAR HEMOGLOBIN [3]: 23.23 pg
MEAN CORPUSCULAR HEMOGLOBIN CONCENTRATION [3]: 36.9 G/DL
MEAN CORPUSCULAR VOLUME [3]: 62.97 fL
MONOCYTE [3]: 3%
NUCLEATED RED BLOOD CELLS [3]: 0 /100WBC
PLATELET COUNT [3]: 1231.67 x10E3/uL
ALANINE AMINOTRANSFERASE [4]: 45 u/L
ALKALINE PHOSPHATASE [4]: 430.67 u/L
ASPARTATE AMINOTRANSFERASE [4]: 96.67 u/L
BLOOD UREA NITROGEN [4]: 22 mg/dL
CARBON DIOXIDE [4]: 24.33 mmol/L
CHLORIDE [4]: 108.67 MEQ/L
CHOLESTEROL [4]: 59 mg/dL
CREATINE PHOSPHOKINASE [4]: 371.67 u/L
CREATININE [4]: 0.2 mg/dL
GLUCOSE [4]: 135.33 mg/dL
LACTATE DEHYDROGENASE [4]: 479 u/L
PHOSPHORUS [4]: 12.03 mg/dL
POTASSIUM [4]: 6.27 MEQ/L
SODIUM [4]: 147.1 MEQ/L
TOTAL BILIRUBIN [4]: 0.17 mg/dL
TOTAL PROTEIN [4]: 6.13 G/DL
ABSOLUTE BASOPHIL [5]: 0 CELLS/uL
ABSOLUTE EOSINOPHIL [5]: 58 CELLS/uL
ABSOLUTE LYMPHOCYTE [5]: 13530 CELLS/uL
ABSOLUTE MONOCYTE [5]: 390.67 CELLS/uL
ABSOLUTE SEGMENTED NEUTROPHIL [5]: 1821.33 CELLS/uL
BASOPHIL [5]: 0%
EOSINOPHIL [5]: 0.33%
ERYTHROCYTE COUNT [5]: 5.56 x10E6/uL
HEMATOCRIT [5]: 34%
LEUKOCYTE COUNT [5]: 15.8 x10E3/uL
LYMPHOCYTE [5]: 85.67%
MEAN CORPUSCULAR HEMOGLOBIN [5]: 23.23 pg
MEAN CORPUSCULAR HEMOGLOBIN CONCENTRATION [5]: 38 G/DL
NEUTROPHIL [5]: 11.67%
NUCLEATED RED BLOOD CELLS [5]: 0 /100WBC
PLATELET COUNT [5]: 1397.33 x10E3/uL
ALANINE AMINOTRANSFERASE [6]: 42 u/L
ALKALINE PHOSPHATASE [6]: 299.67 u/L
ASPARTATE AMINOTRANSFERASE [6]: 76.33 u/L
CARBON DIOXIDE [6]: 25 mmol/L
CHOLESTEROL [6]: 62.33 mg/dL
CREATINE PHOSPHOKINASE [6]: 334 u/L
CREATININE [6]: 0.15 mg/dL
LACTATE DEHYDROGENASE [6]: 108 u/L
PHOSPHORUS [6]: 13.3 mg/dL
POTASSIUM [6]: 6 MEQ/L
TOTAL BILIRUBIN [6]: 0.23 mg/dL
TOTAL PROTEIN [6]: 5.67 G/DL
ABSOLUTE BASOPHIL [7]: 0 CELLS/uL
ABSOLUTE EOSINOPHIL [7]: 49.67 CELLS/uL
ABSOLUTE MONOCYTE [7]: 426 CELLS/uL
ABSOLUTE SEGMENTED NEUTROPHIL [7]: 994 CELLS/uL
BASOPHIL [7]: 0%
EOSINOPHIL [7]: 0.33%
ERYTHROCYTE COUNT [7]: 5.79 x10E6/uL
HEMATOCRIT [7]: 36.83%
HEMOGLOBIN [7]: 13.8 G/DL
LEUKOCYTE COUNT [7]: 14.2 x10E3/uL
MEAN CORPUSCULAR HEMOGLOBIN [7]: 23.9 pg
MEAN CORPUSCULAR HEMOGLOBIN CONCENTRATION [7]: 37.5 G/DL
MONOCYTE [7]: 3%
NEUTROPHIL [7]: 7%
NUCLEATED RED BLOOD CELLS [7]: 0 /100WBC
PLATELET COUNT [7]: 1414 x10E3/uL
ALANINE AMINOTRANSFERASE [8]: 41.33 u/L
ALKALINE PHOSPHATASE [8]: 357 u/L
ASPARTATE AMINOTRANSFERASE [8]: 86.33 u/L
CARBON DIOXIDE [8]: 24.33 mmol/L
CREATINE PHOSPHOKINASE [8]: 353.67 u/L
CREATININE [8]: 0.22 mg/dL
GLUCOSE [8]: 190.67 mg/dL
LACTATE DEHYDROGENASE [8]: 202.33 u/L
PHOSPHORUS [8]: 14.33 mg/dL
POTASSIUM [8]: 6.7 MEQ/L
SODIUM [8]: 150 MEQ/L
TOTAL BILIRUBIN [8]: 0.2 mg/dL
TOTAL PROTEIN [8]: 5.87 G/DL
URIC ACID [8]: 2.3 mg/dL
